# ChEMBL document CHEMBL1201862, “PubChem BioAssay data set” (2004)
#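 Interpolation was linear, between the two tested concentrations surrounding the appropriate level; five concentrations were tested over 48 hours in 96-well plates. GI50 marks 50% less growth.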 Active and inactive are the calls of the source. Rule as the data show it: active = GI50 up to about 1.1 µM and inactive = higher.
# Legend:
# Test in all cases: growth of human tumour cells (NCI), 48 h
# UO-31 = tested on: UO-31
# M14 = tested on: M14
# TK-10 = tested on: TK-10
# U-251 = tested on: U-251
# RPMI-8226 = tested on: RPMI-8226
# SNB-19 = tested on: SNB-19
# OVCAR-4 = tested on: OVCAR-4
# COLO 205 = tested on: COLO 205
# SK-MEL-5 = tested on: SK-MEL-5
# SF-539 = tested on: SF-539
# SF-268 = tested on: SF-268
# A498 = tested on: A498
# NCI/ADR-RES = tested on: NCI/ADR-RES
# SNB-75 = tested on: SNB-75
# OVCAR-3 = tested on: OVCAR-3
# SK-MEL-2 = tested on: SK-MEL-2
# MOLT-4 = tested on: MOLT-4
# CAKI-1 = tested on: CAKI-1
# T47D = tested on: T47D
# CCRF-CEM = tested on: CCRF-CEM
SMILES,GI50 (UO-31),GI50 (M14),GI50 (TK-10),GI50 (U-251),GI50 (RPMI-8226),GI50 (SNB-19),GI50 (OVCAR-4),GI50 (COLO 205),GI50 (SK-MEL-5),GI50 (SF-539),GI50 (SF-268),GI50 (A498),GI50 (NCI/ADR-RES),GI50 (SNB-75),GI50 (OVCAR-3),GI50 (SK-MEL-2),GI50 (MOLT-4),GI50 (CAKI-1),GI50 (T47D),GI50 (CCRF-CEM)
O=C1OC2(c3ccc(O)cc3Oc3cc(O)ccc32)c2c1c(-c1ccccc1)c(-c1ccccc1)c(-c1ccccc1)c2-c1ccccc1,25.7 µM (inactive),18.2 µM (inactive),23.7 µM (inactive),17.7 µM (inactive),27.7 µM (inactive),18.7 µM (inactive),27.8 µM (inactive),19.3 µM (inactive),27.7 µM (inactive),22.9 µM (inactive),22.2 µM (inactive),19.7 µM (inactive),31.2 µM (inactive),18.7 µM (inactive),34.5 µM (inactive),20 µM (inactive),23.9 µM (inactive),25.1 µM (inactive),26.5 µM (inactive),–
O=C(O)CCC1(c2ccccc2)NC(=O)NC1=O (centres undefined),–,–,> 100 µM (inactive),> 100 µM (inactive),> 100 µM (inactive),–,> 100 µM (inactive),> 100 µM (inactive),> 100 µM (inactive),> 100 µM (inactive),> 100 µM (inactive),> 100 µM (inactive),> 100 µM (inactive),> 100 µM (inactive),> 100 µM (inactive),> 100 µM (inactive),–,> 100 µM (inactive),> 100 µM (inactive),> 100 µM (inactive)
COC(=O)C(C(=O)C(=O)NC1Nc2ccc(C)cc2S1)c1nc2ccc(Cl)cc2nc1O (centres undefined),> 100 µM (inactive),–,> 100 µM (inactive),> 100 µM (inactive),> 100 µM (inactive),96.4 µM (inactive),74 µM (inactive),–,> 100 µM (inactive),> 100 µM (inactive),> 100 µM (inactive),> 100 µM (inactive),> 100 µM (inactive),> 100 µM (inactive),> 100 µM (inactive),> 100 µM (inactive),–,> 100 µM (inactive),> 100 µM (inactive),–
[O-][Cl+3]([O-])([O-])O.c1ccc(C2=NN2c2ccccc2)cc1,15.9 µM (inactive),9.82 µM (inactive),> 100 µM (inactive),> 100 µM (inactive),–,> 100 µM (inactive),> 100 µM (inactive),7.76 µM (inactive),13.8 µM (inactive),76.2 µM (inactive),21.8 µM (inactive),> 100 µM (inactive),> 100 µM (inactive),> 100 µM (inactive),84.9 µM (inactive),> 100 µM (inactive),3.73 µM (inactive),> 100 µM (inactive),7.13 µM (inactive),> 100 µM (inactive)
CC(C)(C)OC(=O)NC(Cc1ccc(OCc2ccccc2)cn1)C(=O)NCc1ccccc1 (centres undefined),34.7 µM (inactive),25.8 µM (inactive),30.3 µM (inactive),26.1 µM (inactive),16.3 µM (inactive),49.9 µM (inactive),–,17.1 µM (inactive),13.3 µM (inactive),–,23.6 µM (inactive),32.1 µM (inactive),16.7 µM (inactive),27.1 µM (inactive),19.3 µM (inactive),14.3 µM (inactive),13.2 µM (inactive),28.6 µM (inactive),16.7 µM (inactive),12.4 µM (inactive)
COC(=O)[C@@H](N1C(=O)c2ccccc2C1=O)C1(C)CC(Cl)=NO1 (some centres undefined),> 100 µM (inactive),> 100 µM (inactive),31.1 µM (inactive),26.2 µM (inactive),> 100 µM (inactive),24.8 µM (inactive),> 100 µM (inactive),> 100 µM (inactive),> 100 µM (inactive),–,29.3 µM (inactive),34.7 µM (inactive),26.8 µM (inactive),17.8 µM (inactive),> 100 µM (inactive),> 100 µM (inactive),–,12.7 µM (inactive),28.5 µM (inactive),> 100 µM (inactive)
c1ccc2c(CN3CCN(Cc4c[nH]c5ccccc45)CC3)c[nH]c2c1,14.6 µM (inactive),15.7 µM (inactive),15.6 µM (inactive),15.9 µM (inactive),19.3 µM (inactive),21.6 µM (inactive),41.4 µM (inactive),5.58 µM (inactive),15.2 µM (inactive),–,17.4 µM (inactive),14.4 µM (inactive),23 µM (inactive),13.3 µM (inactive),13.1 µM (inactive),16.7 µM (inactive),–,23.5 µM (inactive),14.2 µM (inactive),39.9 µM (inactive)
COc1ccc(N2C(=O)C3ON(C(C(N)=O)c4ccccc4)C(c4cc5ccccc5c5ccccc45)C3C2=O)cc1 (centres undefined),16.7 µM (inactive),17.7 µM (inactive),28.8 µM (inactive),38.5 µM (inactive),–,> 50 µM (inactive),25.9 µM (inactive),19.6 µM (inactive),19.7 µM (inactive),16.1 µM (inactive),40.9 µM (inactive),> 50 µM (inactive),> 50 µM (inactive),40.1 µM (inactive),31.7 µM (inactive),18.3 µM (inactive),14.5 µM (inactive),9.1 µM (inactive),28.6 µM (inactive),12.7 µM (inactive)
c1cc(Sc2nc(Sc3ccncc3)nc(Sc3ccncc3)n2)ccn1,> 100 µM (inactive),> 100 µM (inactive),> 100 µM (inactive),> 100 µM (inactive),> 100 µM (inactive),> 100 µM (inactive),> 100 µM (inactive),> 100 µM (inactive),> 100 µM (inactive),> 100 µM (inactive),> 100 µM (inactive),> 100 µM (inactive),> 100 µM (inactive),–,> 100 µM (inactive),> 100 µM (inactive),> 100 µM (inactive),> 100 µM (inactive),> 100 µM (inactive),> 100 µM (inactive)
CCN(CC)CCCNc1nncc2c(C)c3[nH]c4ccccc4c3cc12,5.79 µM (inactive),1.89 µM (inactive),4.52 µM (inactive),0.605 µM (active),–,0.644 µM (active),0.514 µM (active),0.653 µM (active),1.99 µM (inactive),1.12 µM (inactive),–,0.665 µM (active),89.5 µM (inactive),1.41 µM (inactive),1.03 µM (active),2.22 µM (inactive),0.0241 µM (active),3.61 µM (inactive),0.705 µM (active),0.02 µM (active)
CSCCCCCCCCCCOc1ccc(C=C2C(=C(C#N)C#N)c3ccccc3C2=C(C#N)C#N)cc1,16.3 µM (inactive),17.9 µM (inactive),19.4 µM (inactive),17.5 µM (inactive),28.8 µM (inactive),–,18.3 µM (inactive),–,17.9 µM (inactive),18 µM (inactive),17.9 µM (inactive),17 µM (inactive),29 µM (inactive),–,16.4 µM (inactive),20.1 µM (inactive),19.2 µM (inactive),17.1 µM (inactive),21.6 µM (inactive),1.32 µM (inactive)
CC1=CC(=O)N(n2c(C)n[nH]c2=O)C1=O,> 100 µM (inactive),> 100 µM (inactive),> 100 µM (inactive),> 100 µM (inactive),> 100 µM (inactive),> 100 µM (inactive),> 100 µM (inactive),> 100 µM (inactive),> 100 µM (inactive),> 100 µM (inactive),> 100 µM (inactive),> 100 µM (inactive),> 100 µM (inactive),–,> 100 µM (inactive),> 100 µM (inactive),> 100 µM (inactive),> 100 µM (inactive),> 100 µM (inactive),> 100 µM (inactive)
CCC1(C)N=c2c(ncn2N=C(C)C)=C(C(N)=O)N1 (centres undefined),–,> 100 µM (inactive),> 100 µM (inactive),> 100 µM (inactive),> 100 µM (inactive),> 100 µM (inactive),> 100 µM (inactive),> 100 µM (inactive),> 100 µM (inactive),> 100 µM (inactive),> 100 µM (inactive),> 100 µM (inactive),> 100 µM (inactive),> 100 µM (inactive),> 100 µM (inactive),–,–,> 100 µM (inactive),> 100 µM (inactive),> 100 µM (inactive)
Br[Se]c1ccccn1,17.1 µM (inactive),17.6 µM (inactive),20.2 µM (inactive),15.6 µM (inactive),23.8 µM (inactive),12.4 µM (inactive),16.9 µM (inactive),17.1 µM (inactive),15.6 µM (inactive),15.8 µM (inactive),18.2 µM (inactive),17.9 µM (inactive),26.1 µM (inactive),17 µM (inactive),15.5 µM (inactive),16.4 µM (inactive),–,18.7 µM (inactive),21.8 µM (inactive),27.6 µM (inactive)
COc1ccc2cc(C(C)C(=O)N3C(=O)OCC3(C)C)ccc2c1 (centres undefined),> 100 µM (inactive),> 100 µM (inactive),> 100 µM (inactive),> 100 µM (inactive),> 100 µM (inactive),> 100 µM (inactive),> 100 µM (inactive),> 100 µM (inactive),> 100 µM (inactive),–,> 100 µM (inactive),> 100 µM (inactive),> 100 µM (inactive),46.6 µM (inactive),> 100 µM (inactive),–,> 100 µM (inactive),–,> 100 µM (inactive),> 10 µM (inactive)
